Each structure is given as a SMILES string. Non-standard residues stand in square brackets, D forms with d. Residues, ends and D or L forms follow the SMILES beside them. *: point of attachment. Leu(ol) = CC(C)C[C@H](N)CO; Cbz = O=C(OCc1ccccc1)*

`CCc1ccc(COc2ccc(CC(NC(=O)c3cn4ccc(-c5ccc(Cl)cc5)cc4n3)C(=O)O)cc2)cc1` (centres undefined): the melting point (as a rule, the temperature, or range, at which the solid turns liquid) turned out to be 245 °C.
Then `Cc1cccc2c(=O)nc(-c3cccc(C(=O)OC(C)(C)C)n3)sc12`, with 204 to 205 °C; and `CCOC(=O)Cc1nc(Cl)c(Cl)s1`, with 63 °C; and `Cc1ccccc1CC(=O)Nc1ccc(C(=O)O)c(Cl)c1`, with 214 to 218 °C.
`COc1ccccc1-c1c(CC(=O)O)n(C)c2ccc(Cl)cc12` showed a melting point of 153 to 154 °C.
To `COC(=O)C1=C(C)NC(=O)N(C)C1c1cccc(N)c1` (centres undefined) belongs 205 to 209 °C; to `CCCCNc1c(C(=O)OCC)c(C)nc2nccnc12`, 56 to 58 °C.
Consider `COc1ccc(Cl)cc1CN(CCO)c1ncnc2c1ncn2C1OC(CO)C(O)C1O` (centres undefined), for which the melting point fell in the range of 98 to 100 °C.
To `COc1cccc(CNC(=O)c2nc3sc(C(=O)O)c(C)c3c(=O)[nH]2)c1` belongs greater than 300 °C; to `CCOC(=O)c1c(C)nc(-c2ccccc2)nc1-c1ccncc1`, 95 to 96 °C.
To `CC(C)OC(=O)N1c2cncnc2NC(=S)C1C` (racemic) belongs 203 to 204 °C.
To `CCN1CN(c2cccc(C(F)(F)F)c2)c2ncccc2C1=O` belongs 108 to 109 °C; to `O=C(NCc1ccc(OC(F)(F)F)cc1)Nc1cccc2[nH]ccc12`, 177 °C; to `CCNS(=O)(=O)c1ccc(NC(C)=O)cc1`, 90 to 91 °C.
In turn, `CC(C)c1ccc(O[C@@H](Cc2ccc(O)cc2)C(=O)N2C(=O)OC[C@@H]2Cc2ccccc2)cc1` yielded a melting point of 142 to 143 °C.
Regarding `O=C(O)CCCCOc1cccc(CNC(=O)C2Cc3ccccc3N2S(=O)(=O)c2ccc(-c3cccc(C(F)(F)F)c3)cc2)c1` (centres undefined), the melting point stood at 70 °C.
`CN(C)Cc1cc2cc(C(=O)NN)ccc2o1` showed a melting point of 82 to 92 °C.
To `COc1ccc(COc2cccc(OC)c2C(=O)/C=C(\Nc2cnc(C#N)cn2)SC)cc1` belongs 128 to 135 °C.
Then `COc1nc(NC(=O)NS(=O)(=O)c2ccccc2C)nc(N(C)C)n1`, with 194 to 198 °C; and `COCC1(CC(=O)O)OCC(=O)c2c1[nH]c1ccccc21` (centres undefined), with 135 to 140 °C; and `Nc1ccc(C(=O)N2Cc3ccccc3Cc3ccccc32)c(Cl)c1`, with 158 to 161 °C.
To `CCCCCCCCOc1ccc(CC(=O)[C@H]2CC[C@H](CCCCC)CC2)c(F)c1F` belongs 59 °C; to `CCCc1c(C(=O)OCC)nc2c(CCC)c3oc(C(=O)OCC)cc(=O)c3cc2c1Cl`, 145 to 147 °C.
For the compound `N#Cc1ccc(NC(=O)[C@H]2NCC[C@@H]2O)c2ccccc12`, the melting point was in the range of 174 to 176 °C.
To `COC(=O)/C(O)=C1/C(=O)c2ccc(OC)cc2CC1C` (centres undefined) belongs 89 to 89.6 °C.
`CC12CCC3C(CCC4CC=CCC43C)C1CC=C2I` (centres undefined) displayed a melting point of 71 to 72 °C.
Then `COc1cccc(CNC(=O)c2cc3c(s2)N(C)CNC3)c1`, with 279 to 281 °C; and `O=c1nc(-c2ccccc2)c2cc(Cl)sc2n1CC1CC1`, with 149 to 151 °C; and `CCCCCCN1CCN(Cc2ccc(NC(N)=S)cc2)C(=O)C1=O`, with 197 to 198 °C.
To `CC(C)C[C@@H](CO)NC(=O)[C@H](Cc1c[nH]cn1)NC(=O)[C@H](Cc1ccccc1)NC(=O)OCc1ccccc1` (Cbz-Phe-His-[Leu(ol)]) belongs 181 to 183 °C.
Then `COC1=C(OC)C(=O)C(CCC(=O)NCC(=O)O)=C(C)C1=O`, with 128 to 130 °C.
Regarding `Cc1nccc(-c2ccccc2)c1CC[C@H]1C[C@H](O)CC(=O)O1` (relative stereo), the melting point lay within 107 to 108 °C.
Then `Cc1c(-c2ccc(O)cc2)nnn1-c1ccc(C(F)(F)F)cc1Cl`, with 176 to 177 °C.
In turn, `COc1c(Nc2ncc3ccc(-c4ccccc4N(C)S(C)(=O)=O)n3n2)ccc(N2CCN(C[C@H](C)O)CC2)c1F` had a melting point of 86 to 88 °C.
For `Cc1c(N2CC[C@@H](N)[C@H](C)C2)c(F)cc2c(=O)c(C(=O)O)cn(C3CC3)c12` (relative stereo), the melting point lay in the range of 223 to 225 °C.
To `Cc1ccc(Oc2ccc(C(=O)c3ccc(Oc4ccc(C)c(C)c4)cc3)cc2)cc1C` belongs 68 to 69 °C.
Turning to `Cc1cccc(NC(=O)C2=C(O)c3ccccc3N(c3ccccc3)C2)n1`, the melting point is 74 to 77 °C.
Compound `Nc1ncc(CCN2CCN(c3ccccn3)CC2)s1` displayed a melting point of 158 to 161 °C.
The compound `COc1ccc(C=CC(=O)c2c(OC)cc(OC)cc2OP(=O)(O)O)cc1` showed a melting point of 71 to 73 °C.
To `Cc1ccc(CCc2cc3c(s2)-n2c(C)nnc2CN=C3c2ccccc2Cl)cc1` belongs 160 to 162 °C; to `COC(CSc1nc(SCc2ccccc2)n[nH]1)OC`, 73 to 76 °C; to `O=C1NC(=NC2CCCCC2)C(c2ccc(Br)cc2)N1c1ccc2[nH]cnc2c1` (centres undefined), 205 °C.
To `NC(=O)N1CCN(c2ccc(O)c(O)c2)C1=O` belongs greater than 250 °C.
Then `CC1(C=C(Cl)Cl)CN(C(=O)Nc2ccc(OC(F)(F)F)cc2)N=C1c1ccc(Cl)cc1` (centres undefined), with 138 to 141 °C; and `COc1ccc(C(=O)CN(C)C(=O)/C=C/c2cccnc2)cc1OC`, with 193 to 194 °C.
Take `O=C(O)c1cc(C(F)(F)F)cc(F)c1F`: the melting point fell in the range of 94 to 96 °C.
Then `O=C(O)[C@@H]1CCCN1C(=O)C1CCCCN1` (some centres undefined), with 181 °C; and `C#CCn1nc(-c2ccc(F)cc2)c(-c2ccc(S(C)(=O)=O)cc2)cc1=O`, with 168 to 169 °C; and `CC(C)(C)C(O)C(=Cc1ccc2ccccc2c1)n1cncn1` (centres undefined), with 122 to 124 °C.
`NC(=O)N1CCC(=O)C(C(c2ccccc2)c2ccccc2)C1` (centres undefined): the melting point lay in the range of 88 to 89 °C.
In the case of `C#CCC1(O)CCN(c2ccc(N3C[C@H](CNC(C)=O)OC3=O)cc2F)CC1`, the melting point is 166 to 167 °C.
Then `N#CC1=C(C2CCC2)Nc2n[nH]cc2C1c1ccccc1Cl` (centres undefined), with 188 °C; and `CC(C)COC(=O)Nc1ccc(C2=CCS(=O)CC2)c(F)c1` (centres undefined), with 212 to 214 °C.
In the case of `COc1ccc(CC(=O)Nc2cc(Cl)ccc2O)cc1OC1CCCC1`, the melting point lay within 151 to 152 °C.
To `CCn1ncc2c(NCc3ccccc3)c3ccc(OC)cc3nc21` belongs 163 to 164 °C; to `CC(C)[C@@H](NC(=O)OC(C)(C)C)[C@H]1CCn2c(cc3ccccc32)C1`, 122 to 124 °C.
Then `CS(=O)(=O)c1ccc(CN2CCN(C(=O)N3CCC(c4cn[nH]c4)C3)c3ccccc32)cc1` (centres undefined), with 239 °C.
`COc1ccc(C2C(C(=O)c3ccc(C)cc3)=C(O)C(=O)N2c2ccc(C)nn2)cc1` (centres undefined) gave a melting point of 266 °C.
To `N#Cc1ccsc1-c1ccc(CBr)cc1` belongs 80 °C.
Then `Cc1c(C)c2c(c(C)c1O)CCC(C)(CNCCc1ccc(N=C(N)c3cccs3)cc1)O2` (centres undefined), with greater than 230 °C; and `O=C(NCCCCC1CCSS1)N1CCSC1` (centres undefined), with 76 to 77 °C.
In turn, `O=C(NC1CCN(C2CCCCC2)C1)c1cccc(Br)c1` (centres undefined) had a melting point of 128 to 130 °C.
To `O=C(COc1ccccc1)NC(Cc1ccccc1)C(=O)NNc1ccccc1` (centres undefined) belongs 172 to 175 °C; to `CCN(CC)c1ccc(C2OC(C)(C)N=C2c2ccccc2)cc1` (centres undefined), 104 to 105 °C.
Then `CCOC(=O)C1=C(Cl)/C(=N/OS(C)(=O)=O)CC(c2ccc(Cl)cc2F)N1` (centres undefined), with 63 to 64 °C.
Then `CC(C)CCn1ccc(-c2ccc(NC3CCOCC3)cc2)c(Cl)c1=O`, with greater than 300 °C; and `COC(=O)c1c(C(C)C)nc(C(C)C)c(CN2CCC(N3CCCCC3)CC2)c1-c1ccc(F)cc1`, with 59 to 61 °C.
`CCOC(=O)COc1coc(C)cc1=O` showed a melting point of 95 to 98 °C.
To `Cc1nc2ccc3c(c2o1)C(CCNC(=O)C(F)(F)F)CC3` (centres undefined) belongs 104 to 106 °C.
To `CC1CC(=O)NN=C1c1ccc2c(c1)CCN2` (centres undefined) belongs 187 to 189 °C; to `COc1ccc(CC(N(C)S(=O)(=O)c2ccc(C)cc2)C(C)(C)C(=O)Cl)cc1` (centres undefined), 110 to 111 °C; to `COc1nc2ccccc2cc1NC(=O)N1CCN(c2cccc(C)c2C)CC1`, 174 to 175 °C.
Then `ON=C(c1ccc(Cl)cc1)C1(n2cncn2)CC1`, with 186 to 218 °C.
The compound `COc1cccc(Sc2c(O)c3ccc(Cl)cc3[nH]c2=O)c1` returned a melting point of 199 to 200 °C.
In turn, `COC(=O)c1ccc(C(=O)N(SSN(C(=O)c2ccc(C(=O)OC)cc2)c2ccccc2)c2ccccc2)cc1` showed a melting point of 276 to 278 °C.
Then `CC(CC(=O)NCc1ccccc1)C(N)=O` (centres undefined), with 127 to 129 °C; and `CC(Sc1ccccc1)C1C=CCC1C(N)=O` (centres undefined), with 109 °C.
On to `Cn1nnnc1S(=O)(=O)CCCCS(=O)(=O)c1nnnn1C`, for which the melting point was in the range of 192 to 194 °C.
To `COc1ccc(CC(=O)c2ccc(OCc3ccccc3)cc2O)cc1` belongs 97 to 98 °C.
Then `C=CCOCCOC(=O)c1cc(-n2c(OC)nc(C(F)(F)F)cc2=O)c(F)cc1Cl`, with 74 to 77 °C.
Compound `CCOC(=O)C1=C(C)NC(=O)N(C(=O)OC(C)C)C1c1cccc([N+](=O)[O-])c1` (centres undefined) registered a melting point of 128 to 129 °C.
Then `Cc1ccc(-c2ccccc2C#N)cc1Br`, with 104 to 106 °C.
Then `CC1CC(=O)NN=C1c1ccc(N2CCN(CCCCN)CC2)c([N+](=O)[O-])c1` (centres undefined), with 145 to 146 °C.
In the case of `Nc1nc2cc[nH]c2c(=O)[nH]1`, the melting point is greater than 300 °C.
Then `COc1cccc(-c2nc(N)ncc2-c2ccc(=O)[nH]n2)c1`, with 134 °C; and `Cc1ccc(NC(=N)c2ccccc2)cc1NC(=O)/C=C/c1ccccc1C(F)(F)F`, with 220 to 222 °C; and `COc1ccc(NCCn2nc(O)c3[nH]c4cc(Cl)ccc4c(=O)c3c2=O)cc1`, with 239 to 241 °C.
To `COc1cc(OC)cc(C2CC=CCC2=O)c1` (centres undefined) belongs 60 to 62 °C; to `O=C(O)c1[nH]c2cc(Br)c(Cl)cc2c1-c1ccccc1`, 241 to 242 °C.
